In patent US7745636B2, “Hepatitis C virus inhibitors” (Bristol-Myers Squibb Company, priority 2006, dated 2010):
pEC50: −log10 of the molar value.

tested on: HCV 1b-377-neo replicon cells; assay: HCV Replicon assay, HCV 1b-377-neo replicon cells; type: cell-based, HCV 1b genotype; details: Hepatitis C virus, Table 2, read-out: Range (EC50 against HCV 1b)

SMILES	pEC50
C[C@H](NC(=O)[C@@H](c1ccccc1)N(C)C)c1ncc(-c2cnc(-c3ccc(-c4cnc([C@@H]5CCCN5C(=O)[C@@H](c5ccccc5)N(C)C)[nH]4)cc3)nc2)[nH]1 [Example 152j-16, (2R)-2-(dimethylamino)-N-((1S)-1-(5-(2-(4-(2-((2S)-1-((2R)-2-(dimethylamino)-2-phenylacetyl)-2-pyrrolidinyl)-1H-imidazol-5-yl)phenyl)-5-pyrimidinyl)-1H-imidazol-2-yl)ethyl)-2-phenylacetamide]	9.00 to 12.00
C[C@@H](c1ncc(-c2ccc(-c3ncc(-c4cnc([C@@H]5CCCN5C(=O)[C@@H](c5ccccc5)N(C)C)[nH]4)cn3)cc2)[nH]1)N(C)C(=O)[C@@H](c1ccccc1)N(C)C [Example 152j-20, (2R)-2-(dimethylamino)-N-((1S)-1-(5-(4-(5-(2-((2S)-1-((2R)-2-(dimethylamino)-2-phenylacetyl)-2-pyrrolidinyl)-1H-imidazol-5-yl)-2-pyrimidinyl)phenyl)-1H-imidaozl-2-yl)ethyl)-N-methyl-2-phenylacetamide]	7.00 to 9.00
COC(=O)N[C@@H](C(=O)N[C@@H](C)c1ncc(-c2ccc(-c3ncc(-c4cnc([C@@H]5CCCN5C(=O)[C@@H](c5ccccc5)N5CCCCC5)[nH]4)cn3)cc2)[nH]1)c1ccccc1 [Example 152l-2, methyl ((1R)-2-oxo-1-phenyl-2-(((1S)-1-(4-(4-(5-(2-((2S)-1-((2R)-2-phenyl-2-(1-piperidinyl)acetyl)-2-pyrrolidinyl)-1H-imidazol-5-yl)-2-pyrimidinyl)phenyl)-1H-imidazol-2-yl)ethyl)amino)ethyl) carbamate]	9.00 to 12.00
CC(=O)N[C@@H](C(=O)N1CCC[C@H]1c1ncc(-c2ccc(-c3ccc(-c4cnc([C@@H]5CCCN5C(=O)[C@H](NC(C)=O)c5ccccc5)[nH]4)cn3)cc2)[nH]1)c1ccccc1 [Example 139, N-((1R)-2-((2S)-2-(5-(6-(4-(2-((2S)-1-((2R)-2-acetamido-2-phenylacetyl)-2-pyrrolidinyl)-1H-imidazol-5-yl)phenyl)-3-pyridinyl)-1H-imidazol-2-yl)-1-pyrrolidinyl)-2-oxo-1-phenylethyl)acetamide]	9.00 to 12.00
CO[C@@H](C(=O)N1CCC[C@H]1c1ncc(-c2ccc(-c3ccc(-c4cnc([C@@H]5CCCN5C(=O)[C@H](OC)c5ccccc5)[nH]4)cn3)cc2)[nH]1)c1ccccc1 [Example 135, 5-(2-((2S)-1-((2R)-2-methoxy-2-phenylacetyl)-2-pyrrolidinyl)-1H-imidazol-5-yl)-2-(4-(2-((2S)-1-((2R)-2-methoxy-2-phenylacetyl)-2-pyrrolidinyl)-1H-imidazol-5-yl)phenyl)pyridine]	9.00 to 12.00
COC(=O)N[C@H](C(=O)N1CCCC1c1ncc(-c2cc(C)c(-c3c(C)cc(-c4cnc([C@@H]5CCCN5C(=O)[C@@H](NC(=O)OC)C(C)C)[nH]4)cc3C)c(C)c2)[nH]1)C(C)C (some centres unmarked) [Example F71]	9.00 to 12.00
COC(=O)N[C@@H](C(=O)N1CCC[C@H]1c1ncc(-c2ccc(-c3ccc(-c4cnc([C@@H]5CCCN5C(=O)[C@@H]5CCCO5)[nH]4)cc3C)cc2)[nH]1)c1ccccc1 [Example 128, methyl ((1R)-2-((2S)-2-(5-(2′-methyl-4′-(2-((2S)-1-((2S)-tetrahydro-2-furanylcarbonyl)-2-pyrrolidinyl)-1H-imidazol-5-yl)-4-biphenylyl)-1H-imidazol-2-yl)-1-pyrrolidinyl)-2-oxo-1-phenylethyl)carbamate]	9.00 to 12.00
Cc1cc(-c2cnc([C@@H]3CCCN3C(=O)[C@@H](c3ccccc3)N(C)C)[nH]2)ccc1-c1ccc(-c2cnc([C@@H]3CCCN3C(=O)[C@@H](c3ccccc3)N(C)C)[nH]2)cc1C [Example 121, (1R,1′R)-2,2′-((2,2′-dimethyl-4,4′-biphenyldiyl)bis(1H-imidazole-5,2-diyl(2S)-2,1-pyrrolidinediyl))bis(N,N-dimethyl-2-oxo-1-phenylethanamine)]	9.00 to 12.00
COC(=O)N[C@@H](C(=O)N(C)[C@@H](C)c1ncc(-c2ccc(-c3ncc(-c4cnc([C@@H]5CCCN5C(=O)[C@H](NC(=O)OC)c5ccccc5)[nH]4)cn3)cc2)[nH]1)c1ccccc1 [Example 152j-21, methyl ((1R)-2-((2S)-2-(5-(2-(4-(2-((1S)-1-(((2R)-2-((methoxycarbonyl)amino)-2-phenylacetyl)(methyl)amino)ethyl)-1H-imidazol-5-yl)phenyl)-5-pyrimidinyl)-1H-imidazol-2-yl)-1-pyrrolidinyl)-2-oxo-1-phenylethyl)carbamate]	9.00 to 12.00
C[C@@H](c1ncc(-c2ccc(-c3ccc(-c4cnc([C@@H]5CCCN5C(=O)[C@@H](c5ccccc5)N(C)C)[nH]4)cc3)cc2)[nH]1)N(C)C(=O)[C@@H](c1ccccc1)N(C)C [Example 24-18-5, (2R)-2-(dimethylamino)-N-((1S)-1-(5-(4′-(2-((2S)-1-((2R)-2-(dimethylamino)-2-phenylacetyl)-2-pyrrolidinyl)-1H-imidazol-5-yl)-4-biphenylyl)-1H-imidazol-2-yl)ethyl)-N-methyl-2-phenylacetamide]	9.00 to 12.00
COC(=O)N[C@@H](C(=O)N(C)[C@@H](C)c1ncc(-c2ccc(-c3ccc(-c4cnc([C@@H]5CCCN5C(=O)[C@@H](c5ccccc5)N5CCCCC5)[nH]4)cc3)cc2)[nH]1)c1ccccc1 [Example 131.1-2, methyl((1R)-2-(methyl((1S)-1-(5-(4′-(2-((2S)-1-((2R)-2-phenyl-2-(1-piperidinyl)acetyl)-2-pyrrolidinyl)-1H-imidazol-5-yl)-4-biphenylyl)-1H-imidazol-2-yl)ethyl)amino)-2-oxo-1-phenylethyl)carbamate]	9.00 to 12.00
COC(=O)N[C@H](C(=O)N1CCC[C@H]1c1ncc(-c2ccc(-c3ccc(-c4cnc([C@@H]5CCCN5C(=O)[C@@H](NC(=O)OC)C(C)C)[nH]4)cc3CN(C)C)cc2)[nH]1)C(C)C [Example M120, methyl((1S)-1-(((2S)-2-(5-(2-((dimethylamino)methyl)-4′-(2-((2S)-1-((2S)-2-((methoxycarbonyl)amino)-3-methylbutanoyl)-2-pyrrolidinyl)-1H-imidazol-5-yl)-4-biphenylyl)-1H-imidazol-2-yl)-1-pyrrolidinyl)carbonyl)-2-methylpropyl)carbamate]	6.00 to 7.00
COC(=O)N[C@H](C(=O)N1CCC[C@H]1c1nc(-c2cnc(-c3ccc(-c4cnc([C@@H]5CCCN5C(=O)[C@@H](NC(=O)OC)[C@@H](C)OC)[nH]4)c(F)c3)nc2)c[nH]1)[C@@H](C)OC [Example D70, methyl ((1S,2R)-1-(((2S)-2-(5-(2-fluoro-4-(5-(2-((2S)-1-(N-(methoxycarbonyl)-O-methyl-L-threonyl)-2-pyrrolidinyl)-1H-imidazol-5-yl)-2-pyrimidinyl)phenyl)-1H-imidazol-2-yl)-1-pyrrolidinyl)carbonyl)-2-methoxypropyl) carbamate]	9.00 to 12.00
C[C@@H](OCc1ccccc1)[C@H](N)c1ncc(-c2ccc(-c3ccc(-c4cnc([C@@H]5CCCN5)[nH]4)cc3)cc2)[nH]1 [Example R35]	6.00 to 7.00
COC(=O)N[C@@H](C(=O)N1CCC[C@H]1c1ncc(-c2ccc(-c3ccc(-c4cnc([C@@H]5CCCN5C(=O)[C@H](NC(=O)OC)c5ccccc5)[nH]4)nn3)nn2)[nH]1)c1ccccc1 [Example 153c-2, dimethyl (3,3′-bipyridazine-6,6′-diylbis(1H-imidazole-5,2-diyl(2S)-2,1-pyrrolidinediyl((1R)-2-oxo-1-phenyl-2,1-ethanediyl))) biscarbamate]	7.00 to 9.00
COC(=O)N[C@@H](C(=O)N(C)[C@@H](C)c1ncc(-c2ccc(-c3ccc(-c4cnc([C@@H]5CCCN5C(=O)[C@H](NC(=O)OC)c5ccccc5)[nH]4)cc3)cc2)[nH]1)c1ccccc1 [Example 24-18-4, methyl ((1R)-2-((2S)-2-(5-(4′-(2-((1S)-1-(((2R)-2-((methoxycarbonyl)amino)-2-phenylacetyl) (methyl)amino)ethyl)-1H-imidazol-5-yl)-4-biphenylyl)-1H-imidazol-2-yl)-1-pyrrolidinyl)-2-oxo-1-phenylethyl) carbamate]	9.00 to 12.00
COC(=O)N[C@H](C(=O)N[C@H](c1nc(-c2ccc(-c3ccc(-c4c[nH]c(C5CCCN5C(=O)[C@@H](NC(=O)OC)[C@@H](C)OC)n4)cc3)cc2)c[nH]1)C(C)C)[C@@H](C)OC (some centres unmarked) [Example R37]	9.00 to 12.00
COC(=O)N[C@@H](C(=O)N[C@@H](C)c1ncc(-c2ccc(-c3ccc(-c4cnc([C@H](C)NC(=O)[C@H](NC(=O)OC)c5ccccc5)[nH]4)cn3)cc2)[nH]1)c1ccccc1 [Example 152j-23, methyl ((1R)-2-(((1S)-1-(5-(6-(4-(2-((1S)-1-(((2R)-2-((methoxycarbonyl)amino)-2-phenylace-tyl)amino)eth-yl)-1H-imidazol-5-yl)phenyl)-3-pyridinyl)-1H-imidazol-2-yl)ethyl)amino)-2-oxo-1-phenylethyl)carbamate]	9.00 to 12.00
CN(C)[C@@H](C(=O)N1CCC[C@H]1c1ncc(-c2ccc(-c3ccc(-c4cnc([C@@H]5CCCN5C(=O)[C@@H](c5ccccc5)N(C)C)[nH]4)cc3C(F)(F)F)cc2)[nH]1)c1ccccc1 [Example 130, (1R,1′R)-2,2′-((2-(trifluoromethyl)-4,4′-biphenyldiyl)bis(1H-imidazole-5,2-diyl(2S)-2,1-pyrrolidinediyl))bis(N,N-dimethyl-2-oxo-1-phenylethanamine)]	9.00 to 12.00

same assay, conditions: Table 2, listed as 151 isomer 2, read-out: Range (EC50 against HCV 1b)

SMILES	pEC50
CN(C)[C@@H](C(=O)N1CCC[C@H]1c1nc(-c2ccc(-c3ccc(-c4cn(C)c([C@@H]5CCCN5C(=O)[C@@H](c5ccccc5)N(C)C)n4)cc3)cc2)cn1C)c1ccccc1 (single isomer, unassigned) [Example 151 isomer 2]	6.00 to 7.00

same assay, conditions: Table 2, read-out: Range (EC50 against HCV 1b)

SMILES	pEC50
COC(=O)NC(C(=O)NC(C)c1ncc(-c2ccc(-c3ccc(-c4cnc(C5CCCN5C(=O)C(NC(=O)OC)C(C)C)[nH]4)cc3)cc2)[nH]1)C(C)C (centres unmarked) [Example R26]	9.00 to 12.00
COC(=O)N[C@H](C(=O)N1CCC[C@H]1c1ncc(-c2ccc(-c3ccc(-c4cnc([C@@H]5CCCN5C(=O)CN(C(C)C)C(C)C)[nH]4)cc3)cc2)[nH]1)C(C)C [LS26]	9.00 to 12.00
CC(C)[C@H](NC(=O)OCCF)C(=O)O [OL-4]	9.00 to 12.00
